# System: Nucleic Acid
# Assay: Inhibitory activity against Escherichia coli DNA topoisomerase IV
# Type: nucleic-acid assay
# Settings: not given
row,SMILES,IC50 [µg/mL]
1,c1ccc(COc2ccc(-c3cc(C4CCNCC4)[nH]n3)cc2)cc1,128
2,Cc1cc(=O)oc2cc(CCc3n[nH]c4cccc(OCc5ccc(C(C)(C)C)cc5)c34)ccc12,> 128
3,CO[C@@H]1[C@@H](OC(N)=O)[C@@H](O)[C@H](Oc2ccc3c(O)c(NC(=O)c4ccc(O)c(CC=C(C)C)c4)c(=O)oc3c2C)OC1(C)C [NOVOBIOCIN],25

# System: Nucleic Acid
# Assay: Escherichia coli DNA topoisomerase IV decatenation activity was determined
# Type: nucleic-acid assay
# Settings: not given
row,SMILES,IC50 [µg/mL]
1,COC(=O)C1CCCC(NCc2n[nH]c3cccc(OCc4ccc(C(C)(C)C)cc4)c23)C1 (configuration not stated),> 128
2,Clc1cccc(-n2nc(C3CCNCC3)cc2/C=C/c2c[nH]c3ccc(Cl)cc23)c1,8
3,Cn1cc(/C=C/c2cc(C3CCNCC3)nn2-c2cccc(Cl)c2)c2cc(Cl)ccc21,8
4,COC(=O)C1CCCC(NCc2n[nH]c3cccc(OCc4ccc(Cl)c(Cl)c4)c23)C1 (configuration not stated),> 128

# System: Enterococcus faecalis
# Assay: Inhibitory activity against Enterococcus faecalis ATCC 29212
# Type: functional
# Settings: not given
row,SMILES,MIC [µg/mL]
1,COC(=O)C1CCCC(NCc2cc(/C=C/c3cn(C)c4ccc(Cl)cc34)[nH]n2)C1 (stereo in doubt; 7ba),32
2,COC(=O)C1CCCC(NCc2cc(/C=C\c3cn(C)c4ccc(Cl)cc34)[nH]n2)C1 (stereo in doubt; 8ba),8
3,COC(=O)C1CCCC(NCc2cc(/C=C\c3cn(C)c4ccc(Cl)cc34)[nH]n2)C1 (stereo in doubt; 8bb),64

# Same assay, conditions: Enterococcus faecalis, ATCC 29212; read-out: MIC
row,SMILES,MIC [µg/mL]
1,CCOC(=O)CCCNc1[nH]nc2cccc(OCc3ccc(C(C)(C)C)cc3)c12,16
2,COC(=O)C1CCN(Cc2n[nH]c3cccc(OCc4ccc(C(C)(C)C)cc4)c23)CC1,32
3,COC(=O)[C@@H]1C[C@@H](NCc2n[nH]c3cccc(OCc4ccc(C(C)(C)C)cc4)c23)CN1,128
4,CC(C)(C)c1ccc(COc2cccc3[nH]nc(CN[C@H]4CN[C@H](CO)C4)c23)cc1,64
5,COC(=O)C1CCCC(Nc2[nH]nc3cccc(OCc4ccccc4)c23)C1 (configuration not stated),64
6,c1ccc(COc2ccc(-c3cc(C4CCNCC4)[nH]n3)cc2)cc1,64
7,Cc1cc(=O)oc2cc(CCc3n[nH]c4cccc(OCc5ccc(C(C)(C)C)cc5)c34)ccc12,> 128
8,COC(=O)C1CCCC(NCc2n[nH]c3cccc(OCc4ccc(C(C)(C)C)cc4)c23)C1 (configuration not stated),8
9,Clc1cccc(-n2nc(C3CCNCC3)cc2/C=C/c2c[nH]c3ccc(Cl)cc23)c1,2
10,Cn1cc(/C=C/c2cc(C3CCNCC3)nn2-c2cccc(Cl)c2)c2cc(Cl)ccc21,2
11,COC(=O)C1CCCC(NCc2n[nH]c3cccc(OCc4ccc(Cl)c(Cl)c4)c23)C1 (configuration not stated),4
12,CO[C@@H]1[C@@H](OC(N)=O)[C@@H](O)[C@H](Oc2ccc3c(O)c(NC(=O)c4ccc(O)c(CC=C(C)C)c4)c(=O)oc3c2C)OC1(C)C [NOVOBIOCIN],2

# System: Staphylococcus aureus
# Assay: Inhibitory activity against Staphylococcus aureus FDA 209P
# Type: functional
# Settings: not given
row,SMILES,MIC [µg/mL]
1,COC(=O)C1CCCC(NCc2cc(/C=C/c3cn(C)c4ccc(Cl)cc34)[nH]n2)C1 (stereo in doubt; 7ba),8
2,COC(=O)C1CCCC(NCc2cc(/C=C\c3cn(C)c4ccc(Cl)cc34)[nH]n2)C1 (stereo in doubt; 8bb),8

# Same assay, conditions: Staphylococcus aureus; read-out: MIC
row,SMILES,MIC [µg/mL]
1,CCOC(=O)CCCNc1[nH]nc2cccc(OCc3ccc(C(C)(C)C)cc3)c12,16
2,COC(=O)C1CCN(Cc2n[nH]c3cccc(OCc4ccc(C(C)(C)C)cc4)c23)CC1,32
3,COC(=O)[C@@H]1C[C@@H](NCc2n[nH]c3cccc(OCc4ccc(C(C)(C)C)cc4)c23)CN1,64
4,CC(C)(C)c1ccc(COc2cccc3[nH]nc(CN[C@H]4CN[C@H](CO)C4)c23)cc1,32
5,COC(=O)C1CCCC(Nc2[nH]nc3cccc(OCc4ccccc4)c23)C1 (configuration not stated),64
6,c1ccc(COc2ccc(-c3cc(C4CCNCC4)[nH]n3)cc2)cc1,64
7,Cc1cc(=O)oc2cc(CCc3n[nH]c4cccc(OCc5ccc(C(C)(C)C)cc5)c34)ccc12,> 128
8,COC(=O)C1CCCC(NCc2n[nH]c3cccc(OCc4ccc(C(C)(C)C)cc4)c23)C1 (configuration not stated),4
9,Clc1cccc(-n2nc(C3CCNCC3)cc2/C=C/c2c[nH]c3ccc(Cl)cc23)c1,1
10,Cn1cc(/C=C/c2cc(C3CCNCC3)nn2-c2cccc(Cl)c2)c2cc(Cl)ccc21,1
11,COC(=O)C1CCCC(NCc2n[nH]c3cccc(OCc4ccc(Cl)c(Cl)c4)c23)C1 (configuration not stated),4
12,COC(=O)C1CCCC(NCc2cc(/C=C\c3cn(C)c4ccc(Cl)cc34)[nH]n2)C1 (stereo in doubt; 8ba),4
13,CO[C@@H]1[C@@H](OC(N)=O)[C@@H](O)[C@H](Oc2ccc3c(O)c(NC(=O)c4ccc(O)c(CC=C(C)C)c4)c(=O)oc3c2C)OC1(C)C [NOVOBIOCIN],0.25

# Biological target: T1, DNA topoisomerase II (Homo sapiens, UniProt P11388+Q02880)
# Assay: Human DNA topoisomerase II relaxation activity was determined
# Type: protein assay
# Settings: not given
row,SMILES,IC50 [µg/mL]
1,COC(=O)C1CCCC(NCc2n[nH]c3cccc(OCc4ccc(C(C)(C)C)cc4)c23)C1 (configuration not stated),> 400
2,Clc1cccc(-n2nc(C3CCNCC3)cc2/C=C/c2c[nH]c3ccc(Cl)cc23)c1,> 400
3,Cn1cc(/C=C/c2cc(C3CCNCC3)nn2-c2cccc(Cl)c2)c2cc(Cl)ccc21,> 400
4,COC(=O)C1CCCC(NCc2n[nH]c3cccc(OCc4ccc(Cl)c(Cl)c4)c23)C1 (configuration not stated),> 400

# System: Enterococcus faecalis
# Assay: Inhibitory activity against Enterococcus faecalis KU 1777
# Type: functional
# Settings: not given
row,SMILES,MIC [µg/mL]
1,COC(=O)C1CCCC(NCc2cc(/C=C\c3cn(C)c4ccc(Cl)cc34)[nH]n2)C1 (stereo in doubt; 8ba),8
2,COC(=O)C1CCCC(NCc2cc(/C=C\c3cn(C)c4ccc(Cl)cc34)[nH]n2)C1 (stereo in doubt; 8bb),32

# Same assay, conditions: Enterococcus faecalis; read-out: MIC
row,SMILES,MIC [µg/mL]
1,CCOC(=O)CCCNc1[nH]nc2cccc(OCc3ccc(C(C)(C)C)cc3)c12,16
2,COC(=O)C1CCN(Cc2n[nH]c3cccc(OCc4ccc(C(C)(C)C)cc4)c23)CC1,32
3,COC(=O)[C@@H]1C[C@@H](NCc2n[nH]c3cccc(OCc4ccc(C(C)(C)C)cc4)c23)CN1,64
4,CC(C)(C)c1ccc(COc2cccc3[nH]nc(CN[C@H]4CN[C@H](CO)C4)c23)cc1,32
5,COC(=O)C1CCCC(Nc2[nH]nc3cccc(OCc4ccccc4)c23)C1 (configuration not stated),64
6,c1ccc(COc2ccc(-c3cc(C4CCNCC4)[nH]n3)cc2)cc1,64
7,Cc1cc(=O)oc2cc(CCc3n[nH]c4cccc(OCc5ccc(C(C)(C)C)cc5)c34)ccc12,> 128
8,COC(=O)C1CCCC(NCc2n[nH]c3cccc(OCc4ccc(C(C)(C)C)cc4)c23)C1 (configuration not stated),4
9,Clc1cccc(-n2nc(C3CCNCC3)cc2/C=C/c2c[nH]c3ccc(Cl)cc23)c1,2
10,Cn1cc(/C=C/c2cc(C3CCNCC3)nn2-c2cccc(Cl)c2)c2cc(Cl)ccc21,2
11,COC(=O)C1CCCC(NCc2n[nH]c3cccc(OCc4ccc(Cl)c(Cl)c4)c23)C1 (configuration not stated),4
12,CO[C@@H]1[C@@H](OC(N)=O)[C@@H](O)[C@H](Oc2ccc3c(O)c(NC(=O)c4ccc(O)c(CC=C(C)C)c4)c(=O)oc3c2C)OC1(C)C [NOVOBIOCIN],2

# System: Staphylococcus aureus
# Assay: Inhibitory activity against Staphylococcus aureus KMP9
# Type: functional
# Settings: not given
row,SMILES,MIC [µg/mL]
1,COC(=O)C1CCCC(NCc2cc(/C=C/c3cn(C)c4ccc(Cl)cc34)[nH]n2)C1 (stereo in doubt; 7ba),8
2,COC(=O)C1CCCC(NCc2cc(/C=C\c3cn(C)c4ccc(Cl)cc34)[nH]n2)C1 (stereo in doubt; 8bb),16

# Same assay, conditions: Staphylococcus aureus; read-out: MIC
row,SMILES,MIC [µg/mL]
1,CCOC(=O)CCCNc1[nH]nc2cccc(OCc3ccc(C(C)(C)C)cc3)c12,16
2,COC(=O)C1CCN(Cc2n[nH]c3cccc(OCc4ccc(C(C)(C)C)cc4)c23)CC1,32
3,COC(=O)[C@@H]1C[C@@H](NCc2n[nH]c3cccc(OCc4ccc(C(C)(C)C)cc4)c23)CN1,128
4,CC(C)(C)c1ccc(COc2cccc3[nH]nc(CN[C@H]4CN[C@H](CO)C4)c23)cc1,64
5,COC(=O)C1CCCC(Nc2[nH]nc3cccc(OCc4ccccc4)c23)C1 (configuration not stated),64
6,c1ccc(COc2ccc(-c3cc(C4CCNCC4)[nH]n3)cc2)cc1,64
7,Cc1cc(=O)oc2cc(CCc3n[nH]c4cccc(OCc5ccc(C(C)(C)C)cc5)c34)ccc12,> 128
8,COC(=O)C1CCCC(NCc2n[nH]c3cccc(OCc4ccc(C(C)(C)C)cc4)c23)C1 (configuration not stated),4
9,Clc1cccc(-n2nc(C3CCNCC3)cc2/C=C/c2c[nH]c3ccc(Cl)cc23)c1,1
10,Cn1cc(/C=C/c2cc(C3CCNCC3)nn2-c2cccc(Cl)c2)c2cc(Cl)ccc21,1
11,COC(=O)C1CCCC(NCc2n[nH]c3cccc(OCc4ccc(Cl)c(Cl)c4)c23)C1 (configuration not stated),4
12,COC(=O)C1CCCC(NCc2cc(/C=C\c3cn(C)c4ccc(Cl)cc34)[nH]n2)C1 (stereo in doubt; 8ba),8
13,CO[C@@H]1[C@@H](OC(N)=O)[C@@H](O)[C@H](Oc2ccc3c(O)c(NC(=O)c4ccc(O)c(CC=C(C)C)c4)c(=O)oc3c2C)OC1(C)C [NOVOBIOCIN],0.25

# Biological target: T1, DNA topoisomerase II
# Assay: Inhibitory activity against human DNA topoisomerase II
# Type: protein assay
# Settings: not given
row,SMILES,IC50 [µg/mL]
1,c1ccc(COc2ccc(-c3cc(C4CCNCC4)[nH]n3)cc2)cc1,200
2,Cc1cc(=O)oc2cc(CCc3n[nH]c4cccc(OCc5ccc(C(C)(C)C)cc5)c34)ccc12,> 400
3,CO[C@@H]1[C@@H](OC(N)=O)[C@@H](O)[C@H](Oc2ccc3c(O)c(NC(=O)c4ccc(O)c(CC=C(C)C)c4)c(=O)oc3c2C)OC1(C)C [NOVOBIOCIN],> 400

# Biological target: DNA gyrase (Escherichia coli, UniProt P0AES4+P0AES6)
# Assay: (§1) Inhibitory activity against Escherichia coli DNA gyrase
# Type: protein-complex assay
# Settings: not given
row,SMILES,IC50 [µM]
1,CCOC(=O)CCCNc1[nH]nc2cccc(OCc3ccc(C(C)(C)C)cc3)c12,39.1
2,COC(=O)C1CCN(Cc2n[nH]c3cccc(OCc4ccc(C(C)(C)C)cc4)c23)CC1,36.7
3,COC(=O)[C@@H]1C[C@@H](NCc2n[nH]c3cccc(OCc4ccc(C(C)(C)C)cc4)c23)CN1,18.3
4,CC(C)(C)c1ccc(COc2cccc3[nH]nc(CN[C@H]4CN[C@H](CO)C4)c23)cc1,78.3
5,COC(=O)C1CCCC(Nc2[nH]nc3cccc(OCc4ccccc4)c23)C1 (configuration not stated),21.1
6,c1ccc(COc2ccc(-c3cc(C4CCNCC4)[nH]n3)cc2)cc1,384
7,Cc1cc(=O)oc2cc(CCc3n[nH]c4cccc(OCc5ccc(C(C)(C)C)cc5)c34)ccc12,0.536
8,COC(=O)C1CCCC(NCc2n[nH]c3cccc(OCc4ccc(C(C)(C)C)cc4)c23)C1 (configuration not stated),8.9
9,Clc1cccc(-n2nc(C3CCNCC3)cc2/C=C/c2c[nH]c3ccc(Cl)cc23)c1,32
10,Cn1cc(/C=C/c2cc(C3CCNCC3)nn2-c2cccc(Cl)c2)c2cc(Cl)ccc21,31
11,COC(=O)C1CCCC(NCc2n[nH]c3cccc(OCc4ccc(Cl)c(Cl)c4)c23)C1 (configuration not stated),2.16
12,COC(=O)C1CCCC(NCc2cc(/C=C\c3cn(C)c4ccc(Cl)cc34)[nH]n2)C1 (stereo in doubt; 8ba),2.34
13,COC(=O)C1CCCC(NCc2cc(/C=C\c3cn(C)c4ccc(Cl)cc34)[nH]n2)C1 (stereo in doubt; 8bb),1.17

# Biological target: DNA gyrase (Escherichia coli, UniProt P0AES6+P0AES4)
# Assay: as §1
# Type: protein-complex assay
# Settings: not given
row,SMILES,IC50 [µM]
1,COC(=O)C1CCCC(NCc2cc(/C=C/c3cn(C)c4ccc(Cl)cc34)[nH]n2)C1 (stereo in doubt; 7ba),2.34
